For the assay, the target named is recombinant human SAE enzyme (Homo sapiens (Human), UniProt Q9UBT2). Briefly: SAE HTRF enzyme assay. Format: biochemical. To be noted: for inhibition at 0.111 µM: read-out: Percent Inhibition; for pIC50: class symbols A/B/C; for IC50: SAE inhibition, class symbols, legend in nM. The procedure, abridged: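 HTRF read-out using Eu-cryptate anti-Flag and allophycocyanin anti-GST antibodies, added with EDTA stop buffer and read after 2 h at 24 °C. The preceding reaction ran 105 min at 24 °C: 0.11 nM recombinant SAE, 0.5 μM ATP, Sumo-Flag, Ubc9-GST, pH 7.5. Values given as single-concentration inhibition or IC50.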
Chain of recombinant human SAE enzyme (Q9UBT2 whole entry): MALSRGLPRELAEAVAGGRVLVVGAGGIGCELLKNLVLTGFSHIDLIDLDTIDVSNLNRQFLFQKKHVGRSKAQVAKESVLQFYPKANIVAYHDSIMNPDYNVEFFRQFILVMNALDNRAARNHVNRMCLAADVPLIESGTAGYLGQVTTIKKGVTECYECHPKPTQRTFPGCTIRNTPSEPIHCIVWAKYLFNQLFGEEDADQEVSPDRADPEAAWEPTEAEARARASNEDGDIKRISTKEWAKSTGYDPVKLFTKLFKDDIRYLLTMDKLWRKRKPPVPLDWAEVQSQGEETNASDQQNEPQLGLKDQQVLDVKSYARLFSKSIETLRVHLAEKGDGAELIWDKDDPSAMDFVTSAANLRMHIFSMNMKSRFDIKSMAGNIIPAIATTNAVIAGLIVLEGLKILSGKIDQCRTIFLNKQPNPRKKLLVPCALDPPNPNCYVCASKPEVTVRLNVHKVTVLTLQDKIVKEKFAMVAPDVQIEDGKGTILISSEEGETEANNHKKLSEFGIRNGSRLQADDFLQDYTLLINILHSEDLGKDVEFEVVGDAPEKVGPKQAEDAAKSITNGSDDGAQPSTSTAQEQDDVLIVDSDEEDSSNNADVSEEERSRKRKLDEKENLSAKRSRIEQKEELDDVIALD
Chain of recombinant human SAE enzyme (Q9UBE0 whole entry partner): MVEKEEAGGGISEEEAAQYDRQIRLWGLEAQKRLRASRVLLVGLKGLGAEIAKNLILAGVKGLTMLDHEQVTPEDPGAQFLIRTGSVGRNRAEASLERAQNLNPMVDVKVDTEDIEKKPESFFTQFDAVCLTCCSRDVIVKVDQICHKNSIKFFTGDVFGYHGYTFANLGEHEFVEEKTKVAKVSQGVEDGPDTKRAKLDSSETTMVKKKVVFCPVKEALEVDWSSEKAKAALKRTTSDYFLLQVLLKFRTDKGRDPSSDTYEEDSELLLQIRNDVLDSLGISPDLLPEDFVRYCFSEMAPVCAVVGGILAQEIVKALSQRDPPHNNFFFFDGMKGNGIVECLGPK
In general terms: In TR-FRET formats the signal depends on donor and acceptor labels being close together.

Setting [1] is: SAE inhibition at compound concentration 0.111 μM.

pIC50: −log10 of the molar value.

By inhibition is commonly meant the relative decrease from the control value, in per cent. What is called pIC50 is the negative decadic logarithm of the IC50, by convention in mol/L. Broadly, the IC50 is the concentration at which inhibition is half-maximal.

On to `Cc1sc(C(=O)c2cncnc2N[C@@H]2C[C@H](COS(N)(=O)=O)[C@@H](O)C2)cc1Cn1cc(Cl)cn1` [I-55, [(1R,2S,4R)-4-{[5-({4-[(4-chloro-1H-pyrazol-1-yl)methyl]-5-methyl-2-thienyl}carbonyl)pyrimidin-4-yl]amino}-2-hydroxycyclopentyl]methyl sulfamate], for which the inhibition at 0.111 µM (Concentration 0.111 μM) came out at 97%.

`CC(=O)c1cc(C(=O)c2cncnc2N[C@@H]2C[C@H](COS(N)(=O)=O)[C@@H](O)C2)sc1Cl` [I-242, [(1R,2S,4R)-4-{(5-[(4-Acetyl-5-chloro-2-thienyl)carbonyl]pyrimidin-4-yl}amino)-2-hydroxycyclopentyl]methyl sulfamate]: the pIC50 was 6.00 to 7.00. Further, the inhibition at 0.111 µM (Concentration 0.111 μM) worked out at 25%.

Turning to `NS(=O)(=O)OC[C@H]1C[C@@H](Nc2ncncc2C(=O)c2cc(Cc3cccc(OC(F)F)c3)cs2)C[C@@H]1O` [I-113, [(1R,2S,4R)-4-{[5-({4-[3-(difluoromethoxy)benzyl]-2-thienyl}carbonyl)pyrimidin-4-yl]amino}-2-hydroxycyclopentyl]methyl sulfamate], the pIC50 was above 8.00. For the same molecule, where the note is “Concentration 0.111 μM”, the inhibition at 0.111 µM was found to be 97%.

Consider `Cc1sc(C(=O)c2cncnc2N[C@@H]2C[C@H](COS(N)(=O)=O)[C@@H](O)[C@H]2O)cc1[C@@H]1NCCc2ccc(Br)cc21` (single isomer, unassigned) [I-247a, [(1R,2R,3S,4R)-4-{[5-({4-[(1R)-7-bromo-1,2,3,4-tetrahydroisoquinolin-1-yl]-5-methyl-2-thienyl}carbonyl)pyrimidin-4-yl]amino}-2,3-dihydroxycyclopentyl]methyl sulfamate or [(1R,2R,3S,4R)-4-{[5-({4-[(1S)-7-bromo-1,2,3,4-tetrahydroisoquinolin-1-yl]-5-methyl-2-thienyl}carbonyl)pyrimidin-4-yl]amino}-2,3-dihydroxycyclopentyl]methyl sulfamate], for which the pIC50 was above 8.00. Further, the “Percent Inhibition” value (Concentration 0.111 μM) worked out at 100.

In the case of `CN1Cc2ccc(Cl)cc2[C@@H]1c1csc(C(=O)c2cncnc2N[C@@H]2C[C@H](COS(N)(=O)=O)[C@@H](O)C2)c1` (mixture of isomers) [I-265, [(1R,2S,4R)-4-{[5-({4-[(1R)-6-chloro-2-methyl-2,3-dihydro-1H-isoindol-1-yl]-2-thienyl}carbonyl)pyrimidin-4-yl]amino}-2-hydroxycyclopentyl]methyl sulfamate and [(1R,2S,4R)-4-{[5-({4-[(1S)-6-chloro-2-methyl-2,3-dihydro-1H-isoindol-1-yl]-2-thienyl}carbonyl)pyrimidin-4-yl]amino}-2-hydroxycyclopentyl]methyl sulfamate], the pIC50 was above 8.00. Besides, the “Percent Inhibition” value (Concentration 0.111 μM) is reported as 97.

Turning to `NS(=O)(=O)OC[C@H]1C[C@@H](Nc2ncncc2C(=O)c2cc([C@@]3(c4ccccc4)CCCO3)cs2)C[C@@H]1O` (single isomer, unassigned) [I-32b, [(1R,2S,4R)-2-hydroxy-4-{[5-({4-[(2S)-2-phenyltetrahydrofuran-2-yl]-2-thienyl}carbonyl)pyrimidin-4-yl]amino}cyclopentyl]methyl sulfamate or [(1R,2S,4R)-2-hydroxy-4-{[5-({4-[(2R)-2-phenyltetrahydrofuran-2-yl]-2-thienyl}carbonyl)pyrimidin-4-yl]amino}cyclopentyl]methyl sulfamate], the pIC50 was 7.00 to 8.00. Further, the “Percent Inhibition” value (Concentration 0.111 μM) was determined as 90.

Regarding `CC(O)(c1cccc(Cl)c1)c1cc(C(=O)c2cncnc2N[C@@H]2C[C@H](COS(N)(=O)=O)[C@@H](O)C2)sc1Cl` (single isomer, unassigned) [I-102b, [(1R,2S,4R)-4-{[5-({5-chloro-4-[(1R)-1-(3-chlorophenyl)-1-hydroxyethyl]-2-thienyl}carbonyl)pyrimidin-4-yl]amino}-2-hydroxycyclopentyl]methyl sulfamate or [(1R,2S,4R)-4-{[5-({5-chloro-4-[(1S)-1-(3-chlorophenyl)-1-hydroxyethyl]-2-thienyl}carbonyl)pyrimidin-4-yl]amino}-2-hydroxycyclopentyl]methyl sulfamate], the pIC50 is above 8.00. Besides, the “Percent Inhibition” value (Concentration 0.111 μM) was 97.

For `CN(C)[C@H](c1cccc(Cl)c1)c1csc(C(=O)c2cncnc2N[C@@H]2C[C@H](COS(N)(=O)=O)[C@@H](O)C2)c1` (single isomer, unassigned) [I-153a, [(1R,2S,4R)-4-{[5-({4-[(R)-(3-chlorophenyl)(dimethylamino)methyl]-2-thienyl}carbonyl)pyrimidin-4-yl]amino}-2-hydroxycyclopentyl]methyl sulfamate or [(1R,2S,4R)-4-{[5-({4-[(S)-(3-chlorophenyl)(dimethylamino)methyl]-2-thienyl}carbonyl)pyrimidin-4-yl]amino}-2-hydroxycyclopentyl]methyl sulfamate], the pIC50 was 6.00 to 7.00. For the same molecule, the “Percent Inhibition” value (Concentration 0.111 μM) is 30.

`Cc1sc(C(=O)c2cncnc2N[C@@H]2C[C@H](COS(N)(=O)=O)[C@@H](O)C2)cc1[C@@H]1OCCc2ccc(C#N)cc21.Cc1sc(C(=O)c2cncnc2N[C@@H]2C[C@H](COS(N)(=O)=O)[C@@H](O)C2)cc1[C@H]1OCCc2ccc(C#N)cc21` (mixture of isomers) [I-313, [(1R,2S,4R)-4-{[5-({4-[(1R)-7-cyano-3,4-dihydro-1H-isochromen-1-yl]-5-methyl-2-thienyl}carbonyl)pyrimidin-4-yl]amino}-2-hydroxycyclopentyl]methyl sulfamate and [(1R,2S,4R)-4-{[5-({4-[(1S)-7-cyano-3,4-dihydro-1H-isochromen-1-yl]-5-methyl-2-thienyl}carbonyl)pyrimidin-4-yl]amino}-2-hydroxycyclopentyl]methyl sulfamate]: the IC50 is below 10 nM. Also, the “Percent Inhibition” value under setting [1] is recorded as 94%.

In the case of `N[C@H](c1cccc(Cl)c1)c1csc(C(=O)c2cncnc2N[C@@H]2C[C@H](COS(N)(=O)=O)[C@@H](O)C2)c1` (mixture of isomers) [I-36, [(1R,2S,4R)-4-{[5-({4-[(R)-amino(3-chlorophenyl)methyl]-2-thienyl}carbonyl)pyrimidin-4-yl]amino}-2-hydroxycyclopentyl]methyl sulfamate and [(1R,2S,4R)-4-{[5-({4-[(S)-amino(3-chlorophenyl)methyl]-2-thienyl}carbonyl)pyrimidin-4-yl]amino}-2-hydroxycyclopentyl]methyl sulfamate], the pIC50 is above 8.00. Also, where the note is “Concentration 0.111 μM”, the “Percent Inhibition” value worked out at 100.

Turning to `NS(=O)(=O)OC[C@H]1C[C@@H](Nc2ncncc2C(=O)c2cc([C@@H]3OCCc4ccc(Cl)nc43)c(Cl)s2)C[C@@H]1O` (single isomer, unassigned) [I-276a, [(1R,2S,4R)-4-{[5-({5-chloro-4-[(8S)-2-chloro-5,8-dihydro-6H-pyrano[3,4-b]pyridin-8-yl]-2-thienyl}carbonyl)pyrimidin-4-yl]amino}-2-hydroxycyclopentyl]methyl sulfamate or [(1R,2S,4R)-4-{[5-({5-chloro-4-[(8R)-2-chloro-5,8-dihydro-6H-pyrano[3,4-b]pyridin-8-yl]-2-thienyl}carbonyl)pyrimidin-4-yl]amino}-2-hydroxycyclopentyl]methyl sulfamate], the pIC50 is 6.00 to 7.00. The “Percent Inhibition” value (Concentration 0.111 μM) is on record as 28.

For `NS(=O)(=O)OC[C@H]1C[C@@H](Nc2ncncc2C(=O)c2cc(Cn3ccnc3)cs2)C[C@@H]1O` [I-231, {(1R,2S,4R)-2-hydroxy-4-[(5-{[4-(1H-imidazol-1-ylmethyl)-2-thienyl]carbonyl}pyrimidin-4-yl)amino]cyclopentyl}methyl sulfamate], the pIC50 is 6.00 to 7.00. Besides, the inhibition at 0.111 µM (Concentration 0.111 μM) is 28%.

Take `Cc1sc(C(=O)c2cncnc2N[C@@H]2C[C@H](COS(N)(=O)=O)[C@@H](O)C2)cc1[C@H]1NCCc2ccccc21` (single isomer, unassigned) [I-292b, [(1R,2S,4R)-2-hydroxy-4-{[5-({5-methyl-4-[(1S)-1,2,3,4-tetrahydroisoquinolin-1-yl]-2-thienyl}carbonyl)pyrimidin-4-yl]amino}cyclopentyl]methyl sulfamate or [(1R,2S,4R)-2-hydroxy-4-{[5-({5-methyl-4-[(1R)-1,2,3,4-tetrahydroisoquinolin-1-yl]-2-thienyl}carbonyl)pyrimidin-4-yl]amino}cyclopentyl]methyl sulfamate]: the IC50 lay in the range of 10 to 100 nM. Moreover, the “Percent Inhibition” value under setting [1] is on record as 87%.

As for `CO[C@H](c1cccc(Cl)c1)c1cc(C(=O)c2cncnc2N[C@@H]2C[C@H](COS(N)(=O)=O)[C@@H](O)C2)sc1Cl` (single isomer, unassigned) [I-90a, [(1R,2S,4R)-4-{[5-({5-chloro-4-[(R)-(3-chlorophenyl)(methoxy)methyl]-2-thienyl}carbonyl)pyrimidin-4-yl]amino}-2-hydroxycyclopentyl]methyl sulfamate or [(1R,2S,4R)-4-{[5-({5-chloro-4-[(S)-(3-chlorophenyl)(methoxy)methyl]-2-thienyl}carbonyl)pyrimidin-4-yl]amino}-2-hydroxycyclopentyl]methyl sulfamate], the pIC50 is above 8.00. The “Percent Inhibition” value (Concentration 0.111 μM) is 98.

Turning to “[(1R,2S,4R)-4-{[5-({4-[(1R)-7-bromo-1,2,3,4-tetrahydroisoquinolin-1-yl]-5-chloro-2-thienyl}carbonyl)pyrimidin-4-yl]amino}-2-hydroxycyclopentyl]methyl sulfamate and [(1R,2S,4R)-4-{[5-({4-[(1S)-7-bromo-1,2,3,4-tetrahydroisoquinolin-1-yl]-5-chloro-2-thienyl}carbonyl)pyrimidin-4-yl]amino}-2-hydroxycyclopentyl]methyl sulfamate [I-251]”, the pIC50 is above 8.00. Besides, the “Percent Inhibition” value (Concentration 0.111 μM) is reported as 100.

Consider “{(1R,2S,4R)-4-[(5-{5-chloro-4-[(1R)-7-chloro-1,2,3,4-tetrahydroisoquinolin-1-yl]-2- [I-299]”, for which the IC50 was below 10 nM. Further, the “Percent Inhibition” value under setting [1] worked out at 98%.
